In experiment [1] the target is T1, Mcl-1 protein (residues 171-323) (Homo sapiens, UniProt Q07820).
T1 construct: Tag-free Mcl-1 protein (residues 171-323) was used in the FP assay
Kind of experiment: Inhibition of Mcl-1 by fluorescence polarization (FP) competitive binding assay with FAM-Bid tracer. The conditions noted are these: 2 nM FAM-Bid, 20 nM Mcl-1, 30 min. As for the experimental part: Inhibition of Mcl-1 by Fluorescence Polarization (FP) Assay.
The relative binding potency of representative Compounds of the Disclosure was determined by a fluorescence polarization (FP) assay (Long et al, BMC Biotechnology 13:45 (2013)). The method used a fluorescein labelled peptide (FAM-Bid) which binds to the Mcl-1 protein leading to an increased anisotropy measured in milli-polarization (mP) values using a plate reader. […] Tag-free Mcl-1 protein (residues 171-323) was used in the FP assay (Mady et al, Scientific Reports 8: 10210-10210 (2018); Yang et al, ACS Med. Chem. Lett. 3:308-312 (2012)).
A 10-points serial dilution of each compound was prepared in DMSO and 5 μL solution was transferred into flat bottomed, 96-well back plate (final DMSO concentration 5%). 120 μL of Buffer (PBS, 0.01% BGG (Sigma Cat. #SRE0011), 0.01% Triton X-100), containing the Fluorescein labelled peptide (Final concentration 2 nM) and Mcl-1 protein (final concentration 20 nM) was then added. Assay plates were incubated 30 mins at room temperature with gentle shaking before FP was measured on a Biotek Synergy 1MF reader (Ex. 485 nm, Em. 528 nm, Cut off 510 nm) and mP calculated. The binding of increasing doses of test compounds was expressed as a percentage reduction in mP compared to a window established between 5% DMSO only and 100% inhibition controls (no Mcl-1 protein). 10-points dose response curves were plotted with GraphPad software using Sigmoidal Dose-Response Model and the IC50 values were determined by nonlinear regression fitting of the competition curves. Cell Viability Assay (NCI-H929 cells)
For orientation: Polarisation of emitted light reports the rotation of a fluorescent probe.

Another experiment concerns OPM-2 cells. The experiment in a line: Cell viability assay (OPM-2 cells), CCK-8. Format: cell-based. Conditions: Homo sapiens, OPM-2, 24 h, 5% FBS. How it is done: OPM-2 cells were obtained from Deutsche Sammlung von Mikroorganismen and Zellkulturen GmbH (DSMZ). Cells were maintained in the recommended culture medium with 10% FBS at 37° C. and an atmosphere of 5% CO2.
The effect of representative Compounds of the Disclosure on cell viability was determined using Cell Counting Kit-8 (CCK-8) assay (Shanghai Life iLab Bio Technology) according to the manufacturer's instructions. Each tested compound was serially diluted in culture medium, 100 μL of the compound dilution was added into 96-well plates. 100 μL of an OPM-2 cell suspension (20000 cells/well) in culture medium were seeded into the corresponding well of the plate and the cells were incubated at 37° C. in an atmosphere of 5% CO2 for 24 hours. In the next day, 20 μL of CCK-8 solution was added to each well of the plate and incubated for 4 hours.
The plates were read at 450 nm on the microplate spectrophotometer (SpectraMax plus 384, Molecular devices). The readings were normalized to the vehicle cells, and the IC50 was calculated by nonlinear regression analysis using GraphPad Prism 6 software.

The subject of the next experiment is NCI-H929 cells. Kind of experiment: Cell viability assay (NCI-H929 cells), CCK-8. Format: cell-based. Conditions: Homo sapiens, NCI-H929, 24 h, 5% FBS. How it is done: NCI-H929 cells were obtained from American Type Culture Collection (ATCC). Cells were maintained in the recommended culture medium (RPMI 1640) with 10% FBS and 0.05 mM BME at 37° C. and an atmosphere of 5% CO2.
The effect of Compounds on cell viability was determined using Cell Counting Kit-8 (CCK-8) assay according to the manufacturer's instructions. 95 μL of NCI-H929 cell suspension (20000 cells/well) in culture medium were seeded into 96-well plates and cultured 4 hrs. Each tested compound was serially diluted in DMSO, then 5 μL of the compound or DMSO was diluted in 95 μL medium once more. At last, 5 μL of the compound dilution was added to the corresponding well of the cell plate. After the addition of the tested compound, the cells were incubated at 37° C. in an atmosphere of 5% CO2 for 24 hrs. At the end, 10 μL of CCK-8 solution was added to each well of the plate and incubated for 1-4 hours. The plates were read at 450 nm on the microplate reader (BioTek Synergy 1MF). The readings were normalized to the vehicle cells, and the IC50 was calculated by nonlinear regression analysis using GraphPad Prism 6 software. Cell Viability Assay (OPM-2 cells)

T1 sequence (Q07820 171-323): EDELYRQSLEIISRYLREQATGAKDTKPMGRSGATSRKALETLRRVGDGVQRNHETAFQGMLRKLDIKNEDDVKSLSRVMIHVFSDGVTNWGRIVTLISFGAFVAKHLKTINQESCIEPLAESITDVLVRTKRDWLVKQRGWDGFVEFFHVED

By IC50 is commonly meant the concentration that inhibits the measured activity by half. For the compound `CO[C@H]1C2=CC(C2)[C@H](C)[C@@H](C)S(=O)(=O)NC(=O)c2ccc3c(c2)N(C[C@@H]2CC[C@H]21)C[C@@]1(CCCc2c1cc(F)c(Cl)c2F)CO3` (single isomer, unassigned) [Cpd. No. 19], the IC50 in experiment [1] was determined as 19 nM; in the experiment on OPM-2 cells, 802 nM; in the experiment with NCI-H929 cells, 670 nM.

In the case of `C[C@@H]1[C@@H](C)S(=O)(=O)NC(=O)c2ccc3c(c2)N(C[C@@H]2CC[C@H]2[C@@H](N2CCOCC2)C2=C[C@H]1C2)C[C@@]1(CCCc2c1ccc(Cl)c2F)CO3` (single isomer, unassigned) [compound 56], the IC50 in experiment [1] turned out to be 7.7 nM; in the experiment on OPM-2 cells, 65 nM; in the experiment with NCI-H929 cells, 49 nM.

Take `CO[C@H]1C2CC(C2)[C@H](C)N(C)S(=O)(=O)NC(=O)c2ccc3c(c2)N(C[C@@H]2CC[C@H]21)C[C@@]1(CCCc2cc(Cl)ccc21)CO3` [Cpd. No. 28, (1S,12′S,16′S,16a′R,18a′R)-6-chloro-16′-methoxy-11′,12′-dimethyl-3,4,12′,13′,14′,15′,16′,16a′,17′,18′,18a′,19′-dodecahydro-1′H,2H,3′H,11′H-spiro[naphthalene-1,2′-[5,7]etheno[13,15]methanocyclobuta[i][1,4]oxazepino[3,4-f][1]thia[2,7,16]triazacyclohexadecin]-8′(9′H)-one 10′,10′-dioxide]: the values for the IC50 (in experiment [1]; in the experiment on OPM-2 cells; in the experiment with NCI-H929 cells) were 14 nM, 1500 nM and 1300 nM, respectively.

With `CO[C@@H]1C2CC(C2)[C@H](C)N(C)S(=O)(=O)NC(=O)c2ccc3c(c2)N(C[C@@H]2CC[C@H]21)C[C@@]1(CCCc2cc(Cl)ccc21)CO3` [Cpd. No. 29, (1S,12′S,16′R,16a′R,18a′R)-6-chloro-16′-methoxy-11′,12′-dimethyl-3,4,12′,13′,14′,15′,16′,16a′,17′,18′,18a′,19′-dodecahydro-1′H,2H,3′H,11′H-spiro[naphthalene-1,2′-[5,7]etheno[13,15]methanocyclobuta[i][1,4]oxazepino[3,4-f][1]thia[2,7,16]triazacyclohexadecin]-8′(9′H)-one 10′,10′-dioxide], the IC50 was determined as 16 nM in experiment [1], 5210 nM in the experiment on OPM-2 cells and 5500 nM with NCI-H929 cells.

For the compound `CO[C@H]1C2CC(C2)[C@H](C)CS(=O)(=O)NC(=O)c2ccc3c(c2)N(C[C@@H]2CC[C@H]21)C[C@@]1(CCCc2cc(Cl)ccc21)CO3` [compound 3], the figures for the half-maximal inhibitory concentration (IC50) (in experiment [1]; in the experiment on OPM-2 cells; in the experiment on NCI-H929 cells) were 8 nM, 5450 nM and 3000 nM, respectively.

As for `CO[C@H]1C2=C[C@@H](C2)[C@H](C)[C@@H](C)S(=O)(=O)NC(=O)c2ccc3c(c2)N(C[C@@H]2CC[C@H]21)C[C@@]1(CCCc2c1cc(F)c(Cl)c2F)CO3` [compound 25], the IC50 in experiment [1] worked out at 420 nM; with OPM-2 cells it was 2500 nM; in the experiment on NCI-H929 cells, 3400 nM.

With `CO[C@H]1C2=CC3(C2)CN(C3)S(=O)(=O)NC(=O)c2ccc3c(c2)N(C[C@@H]2CC[C@H]21)C[C@@]1(CCCc2cc(Cl)ccc21)CO3` [compound 31, (1S,16′R,16a′R,18a′R)-6-chloro-16′-methoxy-3,4,16′,16a′,17′,18′,18a′,19′-octahydro-1′H,2H,3′H,12′H-spiro[naphthalene-1,2′-[5,7]etheno[11,13:13,15]dimethanocyclobuta[i][1,4]oxazepino[3,4-f][1]thia[2,7,16]triazacyclohexadecin]-8′(9′H)-one 10′,10′-dioxide], the IC50 in experiment [1] turned out to be 11 nM; in the experiment on OPM-2 cells, 9280 nM; in the experiment on NCI-H929 cells it was 9700 nM.

Take `CO[C@@]1(CN2CCN3CCCC[C@H]3C2)C2=C[C@@H](C2)[C@H](C)[C@@H](C)S(=O)(=O)NC(=O)c2ccc3c(c2)N(C[C@@H]2CC[C@H]21)C[C@@]1(CCCc2c1ccc(Cl)c2F)CO3` [compound 32, (1S,11′R,12′S,13′R,16′R,16a′R,18a′R,E)-6-chloro-5-fluoro-16′-methoxy-11′,12′-dimethyl-16′-(((S)-octahydro-2H-pyrido[1,2-a]pyrazin-2-yl)methyl)-3,4,12′,13′,16′,16a′,17′,18′,18a′,19′-decahydro-1′H,2H,3′H,11′H-spiro[naphthalene-1,2′-[5,7]etheno[13,15]methanocyclobuta[i][1,4]oxazepino[3,4-f][1]thia[2,7]diazacyclohexadecin]-8′(9′H)-one 10′,10′-dioxide]: the IC50 in experiment [1] stood at 13 nM; with OPM-2 cells it was 29 nM; in the experiment with NCI-H929 cells it was 10 nM.

In the case of `CO[C@@]1(CN2CCOCC2)C2=C[C@@H](C2)[C@H](C)[C@@H](C)S(=O)(=O)NC(=O)c2ccc3c(c2)N(C[C@@H]2CC[C@H]21)C[C@@]1(CCCc2c1ccc(Cl)c2F)CO3` [compound 33, (1S,11′R,12′S,13′R,16′R,16a′R,18a′R,E)-6-chloro-5-fluoro-16′-methoxy-11′,12′-dimethyl-16′-(morpholinomethyl)-3,4,12′,13′,16′,16a′,17′,18′,18a′,19′-decahydro-1′H,2H,3′H,11′H-spiro[naphthalene-1,2′-[5,7]etheno[13,15]methanocyclobuta[i][1,4]oxazepino[3,4-f][1]thia[2,7]diazacyclohexadecin]-8′(9′H)-one 10′,10′-dioxide], the IC50 in experiment [1] came to 13 nM; in the experiment on OPM-2 cells, 52 nM; in the experiment with NCI-H929 cells it was 36 nM.

As for `CO[C@@]1(CN2CCN3CCOC[C@H]3C2)C2=C[C@@H](C2)[C@H](C)[C@@H](C)S(=O)(=O)NC(=O)c2ccc3c(c2)N(C[C@@H]2CC[C@H]21)C[C@@]1(CCCc2c1ccc(Cl)c2F)CO3` [compound 34, (1S,11′R,12′S,13′R,16′R,16a′R,18a′R,E)-6-chloro-5-fluoro-16′-(((R)-hexahydropyrazino[2,1-c][1,4]oxazin-8(1H)-yl)methyl)-16′-methoxy-11′,12′-dimethyl-3,4,12′,13′,16′,16a′,17′,18′,18a′,19′-decahydro-1′H,2H,3′H,11′H-spiro[naphthalene-1,2′-[5,7]etheno[13,15]methanocyclobuta[i][1,4]oxazepino[3,4-f][1]thia[2,7]diazacyclohexadecin]-8′(9′H)-one 10′,10′-dioxide], the IC50 is 9.7 nM in experiment [1], 35 nM in the experiment with OPM-2 cells and 16 nM in the experiment with NCI-H929 cells.

With `CO[C@@]1(CN2CCN(C)CC2)C2=C[C@@H](C2)[C@H](C)[C@@H](C)S(=O)(=O)NC(=O)c2ccc3c(c2)N(C[C@@H]2CC[C@H]21)C[C@@]1(CCCc2c1ccc(Cl)c2F)CO3` [compound 35, (1S,11′R,12′S,13′R,16′R,16a′R,18a′R,E)-6-chloro-5-fluoro-16′-methoxy-11′,12′-dimethyl-16′-((4-methylpiperazin-1-yl)methyl)-3,4,12′,13′,16′,16a′,17′,18′,18a′,19′-decahydro-1′H,2H,3′H, 11′H-spiro[naphthalene-1,2′-[5,7]etheno[13,15]methanocyclobuta[i][1,4]oxazepino[3,4-f][1]thia[2,7]diazacyclohexadecin]-8′(9′H)-one 10′,10′-dioxide], the IC50 in experiment [1] was 14 nM; in the experiment with OPM-2 cells it was 32 nM; with NCI-H929 cells, 2.4 nM.

For the compound `CO[C@@]1(CN2CCN(C3CCOCC3)CC2)C2=C[C@@H](C2)[C@H](C)[C@@H](C)S(=O)(=O)NC(=O)c2ccc3c(c2)N(C[C@@H]2CC[C@H]21)C[C@@]1(CCCc2c1ccc(Cl)c2F)CO3` [compound 36], the IC50 in experiment [1] worked out at 13 nM; in the experiment with OPM-2 cells it was 35 nM; in the experiment on NCI-H929 cells, 4.4 nM.

The values above are taken from patent US11498928B2, “Macrocyclic spiroethers as Mcl-1 inhibitors” (ASCENTAGE PHARMA (SUZHOU) CO., LTD., priority 2019, dated 2022).
